# Reference: patent US6844020B2, “Solutions of carotenoids for use in foods and personal care products” (Kemin Foods, L.C., priority 2002, dated 2005)
# Values joined by “and” are separate entries in the source; they are usually repeats but may differ in a detail not shown here. Equal values may be shown once. Read-outs that look alike come from different tables or passages of the source.
# What was measured:
# [1] = consumption of lutein and zeaxanthin; Seddon et al., 1994; cited from earlier work
# [2] = cited from earlier work
# [3] = Stability of lutein dry cake in essential oils; type: physicochemical; conditions: 20 weeks; for trans lutein dropped: accelerated conditions (40° C.); for lutein lost: ambient (25° C.)
# Method: Stability experiments were performed with the best group of essential oils and lutein dry cake. Fresh samples were made, placed in amber vials, blanked with argon and placed onto stability at 25° C. and 40° C. after taking initial % carotenoids and % lutein. Bay, cornmint, peppermint, spearmint, tea tree, pure thyme, red thyme, and white thyme oils were all tested up to 20 weeks. FIGS. 1 and 2 show total carotenoids at ambient and FIGS. 3 and 4 show all trans lutein at ambient conditions. Tea tree oil and bay oil had the best stability of total carotenoids and all trans lutein at ambient conditions. Tea tree lost 32% lutein and pure thyme lost 22% lutein after 20 weeks. It should be noted that the oils were not tested at maximum lutein solubility conditions for stability testing.
# FIGS. 5 and 6 show the same set of experiments for total carotenoids at accelerated conditions. FIGS. 7 and 8 show all trans lutein at accelerated conditions. Under accelerated conditions, bay oil, red thyme and pure thyme fared the best for total carotenoids and lutein. Bay oil trans lutein dropped 54% and pure/red thyme oil trans lutein dropped approximately 47% at 20 weeks. It seems the biggest drop occurs during the first 2-week time point then it levels off. All other oils did much worse.
# [4] = Lutein solubility in essential oils; type: physicochemical
# Method: Lutein dry cake was dissolved in each oil until visibly saturated. The sample was then blanketed with argon and sonicated for ten minutes. If the all the lutein appeared to go into solution, more was added and the process repeated. After the sample was completely saturated, the sample was transferred to a microcentrifuge tube and centrifuged at 14,000 rpm for 10 minutes. If the lutein was not pelleted by centrifugation, the sample was passed through a 0.22 μm filter unit to remove any suspended lutein. The clarified oil was then analyzed for lutein content using UV-VIS and HPLC.
# Lutein content was measured by using an analytical method as follows. Using an analytical balance, 10-20 mg of the sample is weighed into a 100 ml volumetric flask. The sample is diluted to the mark with HEAT (10:6:7:7 v:v:v:v hexane:ethanol:acetone:toluene), and the mixture is agitated or stirred until the sample is dissolved. One ml of this solution is transferred by pipette into a 100 ml amber volumetric flask and diluted to the mark with ethanol. The absorbance of the ethanol solution is measured at 446 nm on a UV/Vis spectrophotometer that has previously been zeroed against ethanol. For analysis by HPLC, 1 ml of the ethanol solution is transferred to an HPLC sample vial and dried using a nitrogen or argon gas stream. The dried sample is dissolved in 1 ml of HPLC mobile phase; sonication may be necessary to complete the solution. The HPLC instrument is set with the following parameters: the column is a 25 cm×4.6 mm nitrile bonded Spherisorb with 5 μm particles; 69 minute run time; flow rate of 1.00 ml/min; back pressure of 64 bar; injection volume of 50 μl; solvent of 75:25:0.35:0.1 (v:v:v:v) hexane/methylene chloride/methanol/diisopropylethylamine (all solvents are HPLC grade); detector is a visible lamp set to 446 nm; and temperature is 22° C. Fifty μl of the ethanol solution is injected into the HPLC column. The peaks at approximately 24, 26, 28.5, 32, 34, 40 and 42 minutes (corresponding to 13, 13′-di-cis-lutein, all-trans-lutein, all-trans-zeaxanthin, 9-cis-lutein, 9′-cis-lutein, 13 and 13′-cis -lutein and 9-cis-zeaxanthin) are integrated and used to determine the HPLC percent area for the lutein peak. The following equations were used for the essential oils: [formula] [formula] [formula]
# % Lutein=% Carotenoids*(% Total HPLC area of lutein/100)
compound,measurement,setting,value
"CC1=C[C@H](O)CC(C)(C)[C@H]1/C=C/C(C)=C/C=C/C(C)=C/C=C/C=C(C)/C=C/C=C(C)/C=C/C1=C(C)C[C@@H](O)CC1(C)C [Lutein, lutein]",reduction in age-related macular degeneration,[1],57%
same,reported solubility,[2]; in canola oil,0.029%
same,reported solubility,[2]; in corn oil,0.042%
same,reported solubility,[2]; in safflower oil,0.033%
same,reported solubility,[2]; in soybean oil,0.032%
same,trans lutein dropped,[3]; in bay oil,54%
same,lutein lost,[3]; in pure thyme oil,22%
same,trans lutein dropped,[3]; in pure/red thyme oil,approximately 47%
same,lutein lost,[3]; in tea tree oil,32%
same,% Lutein,"[4]; in Almond oil, NOW Foods 7660",0.030%
same,% Lutein,"[4]; in Aloe Vera LQX oil, Lebermuth 50-6010-11, lot Sample",0.028%
same,% Lutein,"[4]; in Anise, Spanish oil, Lebermuth 50-6015-11, lot Sample",0.223%
same,% Lutein,"[4]; in Apricot Kernel oil, NOW Foods 7665",0.035%
same,% Lutein,"[4]; in Bay oil, Lebermuth 50-6025-01, lot BA41-0484",1% and 1.001%
same,% Lutein,"[4]; in Bay oil, Lebermuth 50-6025-01, lot Sample",1.152%
same,% Lutein,"[4]; in Bay oil, Spectrum Botanical EO6",1.327%
same,% Lutein,"[4]; in Bergamot Mint oil, Lebermuth 50-6177-01, lot Sample",0.325%
same,% Lutein,"[4]; in Birch, Sweet Southern oil, Lebermuth 50-6035-02, lot Sample",0.236%
same,% Lutein,"[4]; in Cassia, redistilled oil, Lebermuth 50-6060-01, lot Sample",0.639%
same,% Lutein,"[4]; in Castor oil, NOW Foods 7675",0.171%
same,% Lutein,"[4]; in Cedarwood, Texas White oil, Lebermuth 50-6075-01, lot Sample",0.172%
same,% Lutein,"[4]; in Cornmint, Redistilled oil, Lebermuth 50-6100-01, lot CR43-0155",0.951%
same,% Lutein,"[4]; in Cornmint, Redistilled oil, Lebermuth 50-6100-01, lot Sample",1.163%
same,% Lutein,"[4]; in Eucalyptus, 80/85 oil, Lebermuth 50-6105-02, lot Sample",0.672%
same,% Lutein,"[4]; in Eugenol, Lebermuth 50-6110-01, lot Sample",0.517%
same,% Lutein,"[4]; in Frankincense, Olibanum oil, Lebermuth 50-5100-01, lot Sample",0.243%
same,% Lutein,"[4]; in Geranium (Rose), Egyptian oil, Lebermuth 50-6130-11, lot Sample",0.600%
same,% Lutein,"[4]; in Grapefruit, White oil, Lebermuth 50-6140-01, lot Sample",0.071%
same,% Lutein,"[4]; in Grapeseed oil, NOW Foods 7705",0.027%
same,% Lutein,"[4]; in Juniperberry oil, Lebermuth 50-6150-02, lot Sample",0.140%
same,% Lutein,"[4]; in Lemon, California oil, Lebermuth 50-6160-01, lot Sample",0.071%
same,% Lutein,"[4]; in Lime, distilled oil, Lebermuth 50-6170-01, lot Sample",0.213%
same,% Lutein,"[4]; in Nutmeg oil, Lebermuth 50-6190-01, lot Sample",0.122%
same,% Lutein,"[4]; in Peppermint oil, Spectrum Botanical EO64",1.358%
same,% Lutein,"[4]; in Peppermint, Yakima redistilled oil, Lebermuth 50-6225-21, lot PY43-0157",0.945%
same,% Lutein,"[4]; in Peppermint, Yakima redistilled oil, Lebermuth 50-6225-21, lot Sample",1.010%
same,% Lutein,"[4]; in Red Thyme Thymus satureioides oil, Spectrum Botanical, item unspecified",1.0% and 1.084%
same,% Lutein,"[4]; in Red Thyme Thymus vulgaris oil, Spectrum Botanical EO151",4.4% and 4.481%
same,% Lutein,"[4]; in Rosemary, Morrocan oil, Lebermuth 50-6230-03, lot Sample",0.637%
same,% Lutein,"[4]; in Sage, Clary oil, Lebermuth 50-6235-03, lot Sample",0.294%
same,% Lutein,"[4]; in Spearmint oil, Spectrum Botanical EO76",1.325%
same,% Lutein,"[4]; in Spearmint, redistilled oil, Lebermuth 50-6250-11, lot 39SR-0163",1.124%
same,% Lutein,"[4]; in Spearmint, redistilled oil, Lebermuth 50-6250-11, lot Sample",1.001%
same,% Lutein,"[4]; in Tagetes oil, Lebermuth 50-6261-01, lot Sample",0.268%
same,% Lutein,"[4]; in Tea Tree oil, Lebermuth 50-6270-01, lot TX43-0146",0.877%
same,% Lutein,"[4]; in Tea Tree oil, NOW Foods 7625",1.084%
same,% Lutein,"[4]; in Tea Tree oil, NOW Foods 7625, listed as lutein",about 1%
same,% Lutein,"[4]; in Tea Tree oil, Spectrum Botanical EO80",0.942%
same,% Lutein,"[4]; in Thyme oil, NOW Foods 7635",3.582%
same,% Lutein,"[4]; in Thyme oil, NOW Foods 7635, listed as lutein",2.5%
same,% Lutein,"[4]; in Thyme, Pure oil, Lebermuth 50-6275-04, lot TP41-0053",3.453%
same,% Lutein,"[4]; in Thyme, Red oil, Lebermuth 50-6275-02, lot TR43-0158",4.753%
same,% Lutein,"[4]; in Thyme, White oil, Lebermuth 50-6275-01, lot TLC11-T477",3.0% and 3.095%
same,% Lutein,"[4]; in White Thyme oil (from private source), item unspecified",5.068%
same,% Lutein,"[4]; in White Thyme oil, Spectrum Botanical EO82",4.9% and 4.903%
same,% Lutein,"[4]; in Wintergreen, Natural oil, Lebermuth 50-6285-11, lot Sample",0.226%
same,% Lutein,"[4]; in Wormwood, Natural oil, Lebermuth 50-6290-01, lot Sample",0.682%
same,lutein solubility,"[4]; in citrus oils (white grapefruit, lemon, lime)",0.071-0.21%
same,lutein solubility,"[4]; in grapeseed, almond and apricot kernel oils, NOW Foods",0.02-0.03%
same,lutein solubility,[4]; in spearmint oil (text comparison with beta-carotene),~1.0%
same,lutein solubility,"[4]; in thyme oils (red, white, pure)",3.0-4.7% and 3.5-5% and 3-5%
